Data reported in ChEMBL document CHEMBL2086259, “13,28-Epoxy triterpenoid saponins from Ardisia japonica selectively inhibit proliferation of liver cancer cells without affecting normal liver cells” (Bioorg Med Chem Lett, 2012).
Activity calls are given as the source filed them. No cut-off for these calls is given here.

Legend:
[1] = tested on: HCT-116; assay: Cytotoxicity against human HCT116 cells after 72 hrs by MTT assay; format: functional, cell-based; conditions: HCT-116, 72 h
[2] = tested on: HepG2; assay: Cytotoxicity against human HepG2 cells after 72 hrs by MTT assay; format: functional, cell-based; conditions: HepG2, 72 h
[3] = Cytotoxicity against human HL-7702 cells after 72 hrs by MTT assay; format: cell-based; conditions: L02, 72 h
[4] = Cell cycle arrest in human HL-7702 cells assessed as accumulation at G1 phase by FACS flow cytometry; format: cell-based; conditions: l02
[5] = tested on: OVCAR-3; assay: Cytotoxicity against human OVCAR3 cells after 72 hrs by MTT assay; format: functional, cell-based; conditions: OVCAR-3, 72 h
[6] = tested on: Bel-7402; assay: Induction of apoptosis in human Bel7402 cells assessed as early apoptotic cells at 2.5 uM after 24 hrs by annexin V-FITC/propidium iodide staining based flow cytometry (reference value: 3.8 %); format: functional
[7] = tested on: Bel-7402; assay: Induction of apoptosis in human Bel7402 cells assessed as late apoptotic cells at 2.5 uM after 48 hrs by annexin V-FITC/propidium iodide staining based flow cytometry (reference value: 3.7 %); format: functional
[8] = tested on: Bel-7402; assay: Cell cycle arrest in human Bel7402 cells assessed as accumulation at sub-G1 phase by FACS flow cytometry; format: functional
[9] = Cytotoxicity against human HL-7702 cells measured for 72 hrs by MTT assay; format: cell-based; conditions: l02, 72 h
[10] = tested on: Caco-2; assay: Cytotoxicity against human Caco2 cells after 72 hrs by MTT assay; format: functional, cell-based; conditions: Caco-2, 72 h
[11] = tested on: Bel-7402; assay: Cell cycle arrest in human Bel7402 cells assessed as accumulation at G2/M phase by FACS flow cytometry; format: functional
[12] = tested on: NCI-H460; assay: Cytotoxicity against human H460 cells after 72 hrs by MTT assay; format: functional, cell-based; conditions: NCI-H460, 72 h
[13] = tested on: MCF7; assay: Cytotoxicity against human MCF7 cells after 72 hrs by MTT assay; format: functional, cell-based; conditions: MCF7, 72 h
[14] = Cell cycle arrest in human HL-7702 cells assessed as accumulation at G2/M phase by FACS flow cytometry; format: cell-based; conditions: l02
[15] = tested on: Bel-7402; assay: Cytotoxicity against human Bel7402 cells at 2.5 uM by MTT assay; format: functional, cell-based; conditions: TDE = time-dependent effect
[16] = tested on: Bel-7402; assay: Induction of apoptosis in human Bel7402 cells assessed as early apoptotic cells at 2.5 uM after 48 hrs by annexin V-FITC/propidium iodide staining based flow cytometry (reference value: 6.9 %); format: functional
[17] = tested on: SGC-7901; assay: Cytotoxicity against human SGC7901 cells after 72 hrs by MTT assay; format: functional, cell-based; conditions: SGC-7901, 72 h
[18] = tested on: Bel-7402; assay: Induction of apoptosis in human Bel7402 cells assessed as late apoptotic cells at 2.5 uM after 24 hrs by annexin V-FITC/propidium iodide staining based flow cytometry (reference value: 7.5 %); format: functional
[19] = Cell cycle arrest in human HL-7702 cells assessed as accumulation at sub-G1 phase by FACS flow cytometry; format: cell-based; conditions: l02
[20] = Cytotoxicity against human LTEP-A2 cells after 72 hrs by MTT assay; format: functional, cell-based; conditions: LTEP-A2, 72 h
[21] = tested on: Bel-7402; assay: Induction of apoptosis in human Bel7402 cells assessed as early apoptotic cells at 2.5 uM after 12 hrs by annexin V-FITC/propidium iodide staining based flow cytometry (reference value: 3.2 %); format: functional
[22] = Cell cycle arrest in human HL-7702 cells assessed as accumulation at S phase by FACS flow cytometry; format: ADME, cell-based; conditions: l02
[23] = tested on: NCI-H157; assay: Cytotoxicity against human NCI-H157 cells after 72 hrs by MTT assay; format: functional, cell-based; conditions: NCI-H157, 72 h
[24] = Cytotoxicity against human HL-7702 cells at 2.5 uM by MTT assay; format: cell-based; conditions: l02, 2.5 µM, TDE = time-dependent effect
[25] = tested on: Bel-7402; assay: Cytotoxicity against human Bel7402 cells after 72 hrs by MTT assay; format: functional, cell-based; conditions: Bel-7402, 72 h
[26] = tested on: MKN-45; assay: Cytotoxicity against human MKN45 cells after 72 hrs by MTT assay; format: functional, cell-based; conditions: MKN-45, 72 h
[27] = tested on: Bel-7402; assay: Induction of apoptosis in human Bel7402 cells assessed as increase in caspase 8 levels; format: functional, cell-based
[28] = Induction of apoptosis in human HL-7702 cells assessed as late apoptotic cells at 2.5 uM after 48 hrs by annexin V-FITC/propidium iodide staining based flow cytometry (Rvb =8.6 %); format: cell-based; conditions: l02, 48 h
[29] = tested on: Bel-7402; assay: Induction of apoptosis in human Bel7402 cells assessed as late apoptotic cells at 2.5 uM after 12 hrs by annexin V-FITC/propidium iodide staining based flow cytometry (reference value: 5.5 %); format: functional
[30] = tested on: A549; assay: Cytotoxicity against human A549 cells after 72 hrs by MTT assay; format: functional, cell-based; conditions: A549, 72 h
[31] = tested on: Bcap37; assay: Cytotoxicity against human Bcap37 cells after 72 hrs by MTT assay; format: functional, cell-based; conditions: Bcap37, 72 h
[32] = tested on: Bel-7402; assay: Cell cycle arrest in human Bel7402 cells assessed as accumulation at G1 phase by FACS flow cytometry; format: functional
[33] = tested on: Bel-7402; assay: Cytotoxicity against human Bel7402 cells measured for 72 hrs by MTT assay; format: functional, cell-based
[34] = tested on: NCI-H446; assay: Cytotoxicity against human NCI-H446 cells after 72 hrs by MTT assay; format: functional, cell-based; conditions: NCI-H446, 72 h
[35] = Induction of apoptosis in human HL-7702 cells assessed as early apoptotic cells at 2.5 uM after 48 hrs by annexin V-FITC/propidium iodide staining based flow cytometry (Rvb =6.7 %); format: cell-based; conditions: l02, 48 h
[36] = tested on: DU-145; assay: Cytotoxicity against human DU145 cells after 72 hrs by MTT assay; format: functional, cell-based; conditions: DU-145, 72 h
[37] = […] of Cdc25A expression in human HL-7702 cells assessed as reduction in mRNA level at 2.5 uM after 12 to 48 hrs by RT-PCR analysis; format: ADME, cell-based; conditions: l02, 2.5 µM
[38] = tested on: Bel-7402; assay: Down regulation of CDK2 expression in human Bel7402 cells at 2.5 uM after 48 hrs by Western blotting analysis; format: functional, cell-based
[39] = tested on: Bel-7402; assay: Down regulation of Cdc25A expression in human Bel7402 cells at 2.5 uM after 48 hrs by Western blotting analysis; format: functional, cell-based
[40] = tested on: Bel-7402; assay: Down regulation of CDK4 expression in human Bel7402 cells at 2.5 uM after 48 hrs by Western blotting analysis; format: functional, cell-based
[41] = tested on: Bel-7402; assay: Down regulation of CDK1 expression in human Bel7402 cells at 2.5 uM after 48 hrs by Western blotting analysis; format: functional, cell-based
[42] = tested on: Bel-7402; assay: Down regulation of Cyclin A expression in human Bel7402 cells at 2.5 uM after 48 hrs by Western blotting analysis; format: functional, cell-based
[43] = tested on: Bel-7402; assay: Down regulation of Cyclin B expression in human Bel7402 cells at 2.5 uM after 48 hrs by Western blotting analysis; format: functional, cell-based
[44] = Down regulation of Cyclin A expression in human HL-7702 cells assessed as reduction in mRNA level at 2.5 uM after 48 hrs by RT-PCR analysis; format: ADME, cell-based; set-up: scale not given: the % may be the effect or the level left; conditions: l02, 48 h
[45] = tested on: Bel-7402; assay: Down regulation of Cdc25A expression in human Bel7402 cells at 2.5 uM after 12 hrs by Western blotting analysis; format: functional, cell-based
[46] = tested on: Bel-7402; assay: Induction of apoptosis in human Bel7402 cells assessed as caspase 8 activation; format: functional, cell-based

C[C@@H]1O[C@@H](O[C@H]2[C@H](O[C@H]3CO[C@@H](O[C@H]4CC[C@]5(C)[C@H]6CC[C@]78OC[C@@]9(CCC(C)(C)C[C@H]97)[C@H](O)C[C@@]8(C)[C@]6(C)CC[C@H]5C4(C)C)[C@H](O[C@@H]4O[C@H](CO)[C@@H](O)[C@H](O)[C@H]4O)[C@H]3O)O[C@H](CO)[C@@H](O)[C@@H]2O)[C@H](O)[C@H](O)[C@H]1O
IC50 [1]: > 10 µM
IC50 [2]: 3.17 µM
IC50 [3]: > 100 µM
Activity [4]: 67.3%
IC50 [5]: 8.22 µM
Activity [6]: 42.3%
Activity [7]: 36.7%
Activity [8]: 48.4%
Activity [9]: Dose-dependent effect
IC50 [10]: 7.66 µM
Activity [11]: 23.4%
IC50 [12]: > 10 µM
IC50 [13]: > 10 µM
Activity [14]: 12.3%
Activity [15]: tde
Activity [16]: 16.1%
IC50 [17]: 5.88 µM
Activity [18]: 3.4%
Activity [19]: < 1%
IC50 [20]: 7.92 µM
Activity [21]: 36.5%
Activity [22]: 19.7%
IC50 [23]: 5.21 µM
Activity [24]: tde
IC50 [25]: 1.18 µM
IC50 [26]: 6.23 µM
Activity [27]: Active
Activity [28]: 8.9%
Activity [29]: 5.3%
IC50 [30]: 4.41 µM
IC50 [31]: > 10 µM
Activity [32]: 76.6%
Activity [33]: Dose-dependent effect
IC50 [34]: 7.74 µM
Activity [35]: 7.2%
IC50 [36]: 5.47 µM
Activity [37]: Toxic

CC1(C)CC[C@]23CO[C@@]4(CC[C@@H]5[C@@]6(C)CC[C@H](O[C@@H]7OC[C@H](O[C@@H]8O[C@H](CO)[C@@H](O)[C@H](O[C@@H]9O[C@H](CO)[C@@H](O)[C@H](O[C@@H]%10O[C@H](CO)[C@@H](O)[C@H](O)[C@H]%10O)[C@H]9O)[C@H]8O[C@@H]8OC[C@@H](O)[C@H](O)[C@H]8O)[C@H](O)[C@H]7O[C@@H]7O[C@H](CO)[C@@H](O)[C@H](O)[C@H]7O)C(C)(C)[C@@H]6CC[C@@]5(C)[C@]4(C)C[C@H]2O)[C@@H]3C1 [ARDISIANOSIDE B]
Activity [38]: Active
IC50 [1]: > 10 µM
Activity [39]: Active
IC50 [2]: 2.98 µM
IC50 [3]: > 100 µM
Activity [4]: 68.4%
Activity [40]: Active
Activity [41]: Active
IC50 [5]: > 10 µM
Activity [6]: 46.4%
Activity [7]: 41.5%
Activity [8]: 57.8%
Activity [9]: Dose-dependent effect
IC50 [10]: 7.19 µM
Activity [11]: 25.5%
IC50 [12]: > 10 µM
IC50 [13]: > 10 µM
Activity [42]: Active
Activity [43]: Active
Activity [14]: 12.5%
Activity [15]: tde
Activity [16]: 17.6%
Activity [44]: 10%
IC50 [17]: 5.37 µM
Activity [18]: 3.2%
Activity [19]: < 1%
IC50 [20]: > 10 µM
Activity [45]: Active
Activity [21]: 39.4%
Activity [22]: 19.1%
IC50 [23]: 5.09 µM
Activity [24]: tde
IC50 [25]: 0.92 µM
IC50 [26]: 8.39 µM
Activity [27]: Active
Activity [46]: Active
Activity [28]: 9.2%
Activity [29]: 3.9%
IC50 [30]: 4.47 µM
IC50 [31]: > 10 µM
Activity [32]: 74.5%
Activity [33]: Dose-dependent effect
IC50 [34]: 6.63 µM
Activity [35]: 8.3%
IC50 [36]: 6.17 µM
Activity [37]: Toxic
